Assay results published in article PMC467089, “Click estradiol dimers with novel aromatic bridging units: synthesis and anticancer evaluation” (Journal of Enzyme Inhibition and Medicinal Chemistry, 2024).
Entries after “also recorded” stand apart in the source; their conditions may differ.

Columns and labels:
[1] = MTS cytotoxicity assay, HUVEC; format: cell-based; conditions: human
In short: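 Cells seeded overnight, then exposed to fourfold serial dilutions of compounds (DMSO) for 72 h at 37 °C, 5% CO2; viability read by MTS reagent. Technical duplicates, three biological replicates. HCT116p53−/− is the p53-null variant.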

[2] = test system: A549 (lung adenocarcinoma); assay: MTS cytotoxicity assay, A549; format: cell-based, human; conditions: Homo sapiens, A549, 72 h, read-out: IC50 cytotoxic activity A549
In short: (§1)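 MTS read-out after 72 h compound exposure at 37 °C. Cells plated the day before, treated with fourfold serial dilutions from DMSO stocks; duplicate wells, three independent experiments.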

U2OS (osteosarcoma) = assay: MTS cytotoxicity assay, U2OS; format: cell-based, human; conditions: Homo sapiens, U2OS, 72 h, read-out: IC50 cytotoxic activity U2OS
In short: as §1

[3] = MTS cytotoxicity assay, MRC-5; format: cell-based; conditions: human
In short: as §1

[4] = test system: K562-TAX (paclitaxel-resistant variant of K562); assay: MTS cytotoxicity assay, K562-TAX; format: cell-based, human; conditions: Homo sapiens, K562-Tax, 72 h, read-out: IC50 cytotoxic activity K562-TAX
In short: as §1

[5] = MTS cytotoxicity assay, BJ; format: cell-based; conditions: human
In short: as §1

[6] = test system: CEM-DNR (daunorubicin resistant variant of CCRF-CEM); assay: MTS cytotoxicity assay, CEM-DNR; format: cell-based, human; conditions: Homo sapiens, CEM-DNR, 72 h, read-out: IC50 cytotoxic activity CEM-DNR
In short: as §1

HUVEC cells = assay: Endothelial cell tube formation angiogenesis assay; format: cell-based, human; conditions: 60 nM, 24 h, Matrigel
Protocol: The experiment was performed in 96-well plates pre-coated with 50 μL of growth factor reduced basement membrane matrix Matrigel (Corning, Corning, NY). The coating was set by incubating the plates for 1 h at 37 °C. Subsequently, HUVEC cells were seeded at a density of 15 000 cells per well, and dissolved test substances were added to this layer in a total volume of 100 μL. The assay plates were then incubated for 24 h to facilitate endothelial tube formation. After this incubation, the cells were stained with Hoechst 33342 (Thermo Fisher Scientific, Waltham, MA) to a final concentration of 10 μM and calcein AM (Invitrogen, Carlsbad, CA) to a final concentration of 2 µg/mL for 30 min, followed by visualisation in DIC and fluorescent modes using a Zeiss fluorescent microscope (Oberkochen, Germany).

U2OS cells = assay: Immunofluorescence of microtubules / mitotic spindle; format: cell-based, human; conditions: 1 µM, 24-h incubation
Excerpt: In addition, the presence of aster-like tubulin structures indicated the failure in microtubule elongation (Figure 4, ED5). […] The observed intracellular effects of ED3 and ED5 are consistent with data from in vitro assembly assays and cell cycle analyses, thereby strongly supporting the proposed antimitotic mechanisms of these EDs. […] Importantly, cytotoxic IC50 values may vary depending on the duration of exposure to the drug. A more extended exposure could lead to a decrease in the IC50 value, and vice versa. This temporal factor could also contribute to the observed differential sensitivity among the cell lines. The detailed mechanism and the extent to which these cellular and molecular dynamics (MD) contribute to the observed phenomenon might necessitate further investigation and experimentation.
U2OS cells, cultivated on coverslips, underwent a PBS wash and were then fixed in a solution of 3% paraformaldehyde in a buffer containing 10 mM MES, 150 mM NaCl, 5 mM EGTA, 5 mM MgCl2, 5 mM glucose, adjusted to a pH of 6.1. The nuclei were made visible using Hoechst 33342. Subsequently, a 60-min blocking step with 5% goat serum in PBS (SpinChem, Seattle, WA) was followed by a 60-min incubation with α-tubulin (DM1A) mouse monoclonal antibody (Cell Signaling, Danvers, MA) in PBS supplemented with 1% BSA and 0.3% Triton X-100. Visualisation was achieved using Alexa Fluor-488 conjugated anti-mouse antibodies (Life Technologies, Carlsbad, CA). Between each step, the samples underwent a series of three 5-min washes with PBS. Finally, the samples were mounted using Vectashield Mounting Medium with DAPI and imaged utilising a Zeiss spinning disk confocal microscope equipped with CSU-X1 unit (Yokogawa, Musashino, Japan)[10].

porcine brain tubulin [7] = target: T1, porcine brain tubulin (Sus scrofa, UniProt P02550+P02554); design: method as in PMID 36592487; conditions: dimers of the previous study; ref [10]; cited from earlier work
T1 construct: Polymerisation of porcine brain tubulin (>99% purity) was measured; purchased Cytoskeleton, Denver, CO; host or cells: porcine brain (tissue-purified)
T1 sequence (P02550 whole entry): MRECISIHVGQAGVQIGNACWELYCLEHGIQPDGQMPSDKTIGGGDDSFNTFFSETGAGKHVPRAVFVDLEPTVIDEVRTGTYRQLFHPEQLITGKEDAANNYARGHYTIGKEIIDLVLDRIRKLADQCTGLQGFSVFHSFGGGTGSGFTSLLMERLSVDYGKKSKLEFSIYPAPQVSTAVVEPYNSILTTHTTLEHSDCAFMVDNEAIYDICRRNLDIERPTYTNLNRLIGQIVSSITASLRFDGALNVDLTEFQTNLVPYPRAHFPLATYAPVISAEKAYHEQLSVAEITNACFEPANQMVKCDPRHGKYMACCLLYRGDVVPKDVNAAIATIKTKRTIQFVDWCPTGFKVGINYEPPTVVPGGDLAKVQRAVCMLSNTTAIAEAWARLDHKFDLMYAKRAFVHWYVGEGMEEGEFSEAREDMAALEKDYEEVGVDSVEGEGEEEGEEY
T1 sequence (P02554 whole entry): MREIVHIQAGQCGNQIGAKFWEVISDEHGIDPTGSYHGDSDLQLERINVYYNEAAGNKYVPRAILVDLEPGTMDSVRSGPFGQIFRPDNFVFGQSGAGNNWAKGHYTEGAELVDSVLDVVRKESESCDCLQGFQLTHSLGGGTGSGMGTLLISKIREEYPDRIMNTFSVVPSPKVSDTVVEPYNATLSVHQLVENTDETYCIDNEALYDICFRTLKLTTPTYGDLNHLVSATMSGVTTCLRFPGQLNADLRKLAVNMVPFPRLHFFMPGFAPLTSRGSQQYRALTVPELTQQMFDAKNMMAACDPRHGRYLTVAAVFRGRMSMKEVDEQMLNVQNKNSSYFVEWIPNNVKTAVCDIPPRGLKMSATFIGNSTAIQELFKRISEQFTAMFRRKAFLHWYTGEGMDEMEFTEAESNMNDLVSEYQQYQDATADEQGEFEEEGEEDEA

CCRF-CEM lymphoblasts [8] = assay: BrDU incorporation analysis (DNA synthesis); format: cell-based, human
In short: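 CCRF-CEM cells exposed to compounds for 24 h, pulse-labelled 30 min before harvest with 10 μM BrDU, ethanol-fixed, HCl-denatured, stained with anti-BrdU/FITC plus propidium iodide and RNase. Flow cytometry (488 nm) gives the percentage of BrDU-positive cells.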

CCRF-CEM lymphoblasts [9] = assay: BrU incorporation analysis (RNA synthesis); format: cell-based, human
In short: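 CCRF-CEM cells were treated with compounds for 24 h, then pulsed with 1 mM BrU for 30 min and fixed in 1% paraformaldehyde/0.05% NP-40. BrU was detected with a cross-reacting anti-BrdU antibody and FITC secondary, with propidium iodide/RNase counterstain; value is percentage of BrU-positive cells by flow cytometry.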

[10] = test system: HCT116 (colorectal adenocarcinoma); assay: MTS cytotoxicity assay, HCT116; format: cell-based; conditions: Homo sapiens, HCT-116, 72 h, read-out: IC50 cytotoxic activity HCT116
In short: as §1

[11] = test system: CCRF-CEM (childhood T-cell acute lymphoblastic leukaemia); assay: MTS cytotoxicity assay, CCRF-CEM; format: cell-based; conditions: Homo sapiens, 72 h, read-out: IC50 cytotoxic activity CCRF-CEM
In short: as §1

CCRF-CEM lymphoblasts [12] = assay: Phospho-histone H3 (Ser10) mitotic marker, flow cytometry; format: cell-based, human
In short: (§2)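 CCRF-CEM cells treated 24 h, then fixed in cold 70% ethanol, permeabilised with 0.25% Triton X-100 and stained with anti-phospho-histone H3 (Ser10). After 50 μg/mL RNase and propidium iodide, analysed by flow cytometry at 488 nm; sub-G1 events counted as non-viable with fragmented DNA.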

[13] = test system: K562 (chronic myelogenous leukaemia); assay: MTS cytotoxicity assay, K562; format: cell-based; conditions: Homo sapiens, K562, 72 h, read-out: IC50 cytotoxic activity K562
In short: as §1

porcine brain tubulin [14] = target: T1, porcine brain tubulin; assay: Tubulin polymerisation assay; format: biochemical; conditions: 10 μmol/L, Vmax relative to DMSO
In short: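 Porcine brain tubulin (>99% pure) was polymerised at 37 °C with 10 μmol/L test compound or DMSO and monitored on a plate reader. Vmax was derived from the polymerisation curves.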

CCRF-CEM lymphoblasts [15] = assay: Cell cycle analysis by flow cytometry (propidium iodide); format: cell-based, human
In short: as §2

[16] = test system: HCT116p53−/− (p53 gene null variant of HCT116); assay: MTS cytotoxicity assay, HCT116p53−/−; format: cell-based; conditions: Homo sapiens, HCT-116, 72 h, read-out: IC50 cytotoxic activity HCT116p53-
In short: as §1

SMILES: COc1cc2c(c(OC)c1OC)-c1ccc(OC)c(=O)cc1[C@@H](NC(C)=O)CC2 [Colchicine, reference compound]
- IC50 at 72 h ([1]; MTS assay, 72-h incubation, mean ± SD of 3 independent experiments, read-out: IC50 cytotoxic activity HUVEC): < 0.0122 µM
- IC50 [2]: 0.047 ± 0.028 µM
- IC50 (U2OS (osteosarcoma)): 0.028 ± 0.014 µM
- IC50 at 72 h ([3]; MTS assay, 72-h incubation, mean ± SD of 3 independent experiments, read-out: IC50 cytotoxic activity MRC-5): 0.055 ± 0.029 µM
- IC50 [4]: 1.83 ± 0.19 µM
- IC50 at 72 h ([5]; MTS assay, 72-h incubation, mean ± SD of 3 independent experiments, read-out: IC50 cytotoxic activity BJ): > 50 µM
- IC50 [6]: 1.02 ± 0.21 µM
- endothelial cell tube formation (in words) (HUVEC cells): prevented endothelial cell tube formation
- microtubule organisation in mitotic cells (in words) (U2OS cells): complete absence of the spindle with diffuse tubulin signal

SMILES: C[C@]12CC[C@@H]3c4ccc(O)cc4CC[C@H]3[C@@H]1CC[C@@]2(O)c1cn(CCCCCn2cc([C@]3(O)CC[C@H]4[C@@H]5CCc6cc(O)ccc6[C@H]5CC[C@@]43C)nn2)nn1 [D1]
- Tubulin polymerisation inhibition (porcine brain tubulin [7]): 65.0%

SMILES: C[C@]12CC[C@@H]3c4ccc(O)cc4CC[C@H]3[C@@H]1CC[C@@]2(O)c1cn(CCOCCn2cc([C@]3(O)CC[C@H]4[C@@H]5CCc6cc(O)ccc6[C@H]5CC[C@@]43C)nn2)nn1 [D2]
- Tubulin polymerisation inhibition (porcine brain tubulin [7]): 79.1%

SMILES: C[C@]12CC[C@@H]3c4ccc(O)cc4CC[C@H]3[C@@H]1CC[C@@]2(O)c1cn(CCNCCn2cc([C@]3(O)CC[C@H]4[C@@H]5CCc6cc(O)ccc6[C@H]5CC[C@@]43C)nn2)nn1 [D3]
- Tubulin polymerisation inhibition (porcine brain tubulin [7]): 36.8%

SMILES: COc1cc(CN(CCn2cc([C@]3(O)CC[C@H]4[C@@H]5CCc6cc(O)ccc6[C@H]5CC[C@@]43C)nn2)CCn2cc([C@]3(O)CC[C@H]4[C@@H]5CCc6cc(O)ccc6[C@H]5CC[C@@]43C)nn2)ccc1O [D9]
- Tubulin polymerisation inhibition (porcine brain tubulin [7]): 49.6%

SMILES: C[C@]12CC[C@@H]3c4ccc(O)cc4CC[C@H]3[C@@H]1CC[C@@]2(O)c1cn(Cc2ccc(O)c(Cn3cc([C@]4(O)CC[C@H]5[C@@H]6CCc7cc(O)ccc7[C@H]6CC[C@@]54C)nn3)n2)nn1 [ED12, 17,17′-[(3-Hydroxypyridine-2,6-diyl)bis(methylene-1H-1,2,3-triazole-1,4-diyl)]di[estra-1,3,5(10)-triene-3,17β-diol]]
- BrDU, % of positive cells (CCRF-CEM lymphoblasts [8]; 1×IC50, 24 h): 12.43%
- BrDU, % of positive cells (CCRF-CEM lymphoblasts [8]; 5×IC50, 24 h): 7.46%
- IC50 at 72 h [1]: 0.657 ± 0.132 µM
- IC50 [2]: > 50 µM
- BrU, % of positive cells (CCRF-CEM lymphoblasts [9]; 1×IC50, 24 h): 33.92%
- BrU, % of positive cells (CCRF-CEM lymphoblasts [9]; 5×IC50, 24 h): 8.14%
- IC50 (U2OS (osteosarcoma)): 16.8 ± 3.46 µM
- IC50 [10]: 8.78 ± 0.88 µM
- IC50 [11]: 6.14 ± 0.93 µM
- pH3Ser10, % of positive cells (CCRF-CEM lymphoblasts [12]; 1×IC50, 24 h): 13.49%
- pH3Ser10, % of positive cells (CCRF-CEM lymphoblasts [12]; 5×IC50, 24 h): 47.08%
- IC50 [13]: 4.52 ± 0.64 µM
- IC50 at 72 h [3]: 14.2 ± 3.52 µM
- inhibitory activity against tubulin polymerisation (in words) (porcine brain tubulin [14]): comparable or better inhibitory activity; also recorded: comparable to that of the original ED
- IC50 [4]: > 50 µM
- IC50 at 72 h [5]: 11.3 ± 1.41 µM
- <G1 (sub-G1, fragmented DNA), % of positive cells (CCRF-CEM lymphoblasts [15]; 1×IC50, 24 h): 11.00%
- >G2/M (polyploidy), % of positive cells (CCRF-CEM lymphoblasts [15]; 1×IC50, 24 h): 17.19%
- G0/G1, % of positive cells (CCRF-CEM lymphoblasts [15]; 1×IC50, 24 h): 4.79%
- G2/M, % of positive cells (CCRF-CEM lymphoblasts [15]; 1×IC50, 24 h): 66.70%
- S, % of positive cells (CCRF-CEM lymphoblasts [15]; 1×IC50, 24 h): 28.50%
- <G1 (sub-G1, fragmented DNA), % of positive cells (CCRF-CEM lymphoblasts [15]; 5×IC50, 24 h): 16.07%
- >G2/M (polyploidy), % of positive cells (CCRF-CEM lymphoblasts [15]; 5×IC50, 24 h): 14.18%
- G0/G1, % of positive cells (CCRF-CEM lymphoblasts [15]; 5×IC50, 24 h): 22.95%
- G2/M, % of positive cells (CCRF-CEM lymphoblasts [15]; 5×IC50, 24 h): 32.79%
- S, % of positive cells (CCRF-CEM lymphoblasts [15]; 5×IC50, 24 h): 44.26%
- IC50 [6]: > 50 µM
- IC50 [16]: 10.5 ± 2.48 µM

SMILES: Cc1ccc(C(=O)Nc2ccc(S(=O)(=O)O)c3cc(S(=O)(=O)O)cc(S(=O)(=O)O)c23)cc1NC(=O)c1cccc(NC(=O)Nc2cccc(C(=O)Nc3cc(C(=O)Nc4ccc(S(=O)(=O)O)c5cc(S(=O)(=O)O)cc(S(=O)(=O)O)c45)ccc3C)c2)c1 [suramine]
- endothelial cell tube formation (in words) (HUVEC cells): prevented endothelial cell tube formation
